From patent US7910337B2, “Method for identifying drug-sensitizing antisense DNA fragments and use thereof” (priority 2006, dated 2011)

Assays:
[1] = test system: S. aureus engineered with murB antisense
MetRS antisense clones = format: cell-based, B. anthracis
[2] = test system: B. anthracis murB-2 antisense strain

SMILES	IC50 shift (sensitivity), antibiotic panel [1]	difference in sensitivity with and without inducer (MetRS antisense clones)	IC50 shift [2]	IC50 shift [1]
CO/N=C(\C(=O)N[C@@H]1C(=O)N2C(C(=O)[O-])=C(C[N+]3(C)CCCC3)CS[C@H]12)c1csc(N)n1 [cefepime]	≥ 4 fold	–	–	–
CO/N=C(\C(=O)N[C@@H]1C(=O)N2C(C(=O)O)=C(COC(C)=O)CS[C@H]12)c1csc(N)n1 [cefotaxime]	≥ 4 fold	no difference in sensitivity	343	–
CO[C@@]1(NC(=O)Cc2cccs2)C(=O)N2C(C(=O)O)=C(COC(N)=O)CS[C@@H]21 [cefoxitin]	≥ 4 fold	–	–	7.8
Cc1nnc(SCC2=C(C(=O)O)N3C(=O)[C@@H](NC(=O)Cn4cnnn4)[C@H]3SC2)s1 [cefozolin]	≥ 4 fold	–	–	–
CO/N=C(\C(=O)N[C@@H]1C(=O)N2C(C(=O)O)=C(CSc3nc(=O)c(=O)[nH]n3C)CS[C@H]12)c1csc(N)n1 [ceftriaxone]	≥ 4 fold	–	–	–
Cc1onc(-c2c(Cl)cccc2Cl)c1C(=O)N[C@@H]1C(=O)N2[C@@H]1SC(C)(C)[C@@H]2C(=O)O [dicloxacillin]	≥ 4 fold	–	–	5.8
Cc1onc(-c2ccccc2)c1C(=O)N[C@@H]1C(=O)N2[C@@H]1SC(C)(C)[C@@H]2C(=O)O [oxacillin]	≥ 4 fold	–	–	–
CCN1CCN(C(=O)N[C@@H](C(=O)N[C@@H]2C(=O)N3[C@@H]2SC(C)(C)[C@@H]3C(=O)O)c2ccccc2)C(=O)C1=O [pipericillin]	≥ 4 fold	–	–	–
